The source of these data is ChEMBL document CHEMBL1201862, “PubChem BioAssay data set” (2004).

Molecules are shown by their SMILES.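 48-hour exposure; five concentrations; linearly interpolated endpoints. At the GI50, growth is halved.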 Active and inactive are the calls of the source. Cut-off read from the data, not from the text of the source: active = GI50 up to about 1.1 µM and inactive = higher. Peptide text beside a SMILES is read from it. * marks the point of attachment. Boc = CC(C)(C)OC(=O)*; OtBu = CC(C)(C)O*

Some test systems named below: BT-549; DLD-1; M19-MEL; SNB-78; LXFL 529; DMS-114; KM-20L2; HOP-18.
What all share (assay): inhibition of tumour cell growth, NCI panel, 48 h

For `c1ccc(C2(c3cc4ccccc4[nH]3)OCCO2)nc1`, the GI50 in the experiment on BT-549 is > 100 µM (inactive).

Consider `O=C(Nc1ccc(Cl)cc1Cl)C(=O)C(C(=O)c1ccc2ccccc2c1)C1OC(=O)c2ccccc21` (stereo unspecified), for which the GI50 with DLD-1 was 10.7 µM (inactive); in the experiment with M19-MEL, 12.6 µM (inactive); in the experiment on SNB-78, 3.33 µM (inactive); with LXFL 529, 3.33 µM (inactive); with DMS-114, 11.1 µM (inactive).

Regarding `Cn1c(=O)c2nc3nnc(C#N)c(N)n3c2n(C)c1=O`, the GI50 in the experiment with BT-549 is > 100 µM (inactive). On the same count and under the same terms, under `Cc1occc1C(=S)Nc1ccc(Cl)c(/C=N/OC(C)(C)C)c1` stands 17.6 µM (inactive); under `Cn1c(=O)c2c(nc(NCCNc3nc4c(c(=O)n(C)c(=O)n4C)n3C)n2C)n(C)c1=O`, > 100 µM (inactive); under `COc1cc(C=O)cc(/C=N/n2c3ccccc3c3ccccc32)c1O`, 2.94 µM (inactive).

For the compound `Cn1cc(NC(=O)c2cc(NC(=O)CNC(=N)N)cn2C)cc1C(=O)NCCC(=N)N` [NETROPSIN CHLORIDE], the GI50 with BT-549 is > 100 µM (inactive). Regarding `Cc1nn(C(=O)c2ccccc2O)c2c1C(c1ccc3ccccc3c1O)SC(=N)N2` (stereo unspecified), the GI50 in the experiment on BT-549 is > 10 µM (inactive). As for `CCC/C=C\C=C\C1(NS(=O)(=O)c2ccc(C)cc2)CCC(C(C)(C)C)CC1` (stereo unspecified), the GI50 with DLD-1 is 19.4 µM (inactive); in the experiment on KM-20L2 it was 16.9 µM (inactive); in the experiment on M19-MEL it was 17.1 µM (inactive); with SNB-78 it was 19.1 µM (inactive); in the experiment on HOP-18, 14.9 µM (inactive); in the experiment on LXFL 529, 25.2 µM (inactive). In the case of `Cc1cc(Cc2cc(C)c(NC(=O)C(=O)C3CCC4=C(SC5C=CC=CC5N4)C3=O)c(C(C)C)c2)cc(C(C)C)c1NC(=O)C(=O)C1CCC2=C(SC3C=CC=CC3N2)C1=O` (stereo unspecified), the GI50 in the experiment with BT-549 is 38.4 µM (inactive). Take `Cc1cccc(NC(=O)CC#N)c1Cl`: the GI50 in the experiment with DLD-1, with KM-20L2, in the experiment on M19-MEL, in the experiment on SNB-78 and with LXFL 529 was > 100 µM (inactive) each time.

For the compound `CC(=O)N1c2ccccc2C2=NN(C)C(=N)SC21` (stereo unspecified), in the experiment on BT-549, the GI50 is > 100 µM (inactive). Same read-out and setting: under `COc1cc(/C=C2\N=C(c3ccccc3)N(c3nc4cc(C)c(C)cc4s3)C2=O)ccc1O` stands 46.3 µM (inactive); under `CCOc1ccc(N/C(Cl)=C(Cl)\C(=C(\Nc2ccc(OCC)cc2)n2nnc3ccccc32)[N+](=O)[O-])cc1`, 3.85 µM (inactive). Same read-out and setting: under `CCc1ccc(CCC(=O)O)nc1` stands > 100 µM (inactive); under `Nc1cccc(/C=C/C(=O)N2CCN(CCOC(c3ccccc3)c3ccccc3)CC2)c1`, 15 µM (inactive). Same read-out and setting: the result for `CC(C)Sc1nncc(/C(N)=N/O)n1` reads > 100 µM (inactive); that for `Cc1cnc2nc(-c3cccc4ccccc34)cc(O)c2c1`, 0.0536 µM (active). On to `CCCCCCc1cc2cc(C(=O)Nc3cccc(F)c3)c(=N)oc2cc1O`, for which the GI50 in the experiment with BT-549 was 2.63 µM (inactive). As for `COC(=O)[C@]1(c2cc3ccccc3[nH]2)CC2CN(C(=O)OCc3ccccc3)C1CC2=O` (stereo partly specified), in the experiment on BT-549, the GI50 is 29.3 µM (inactive). Still for that read-out and setting: the result for `[N-]=[N+]=NC1OC(=O)C(Cl)=C1N=P(c1ccccc1)(c1ccccc1)c1ccccc1` (stereo unspecified) reads > 10 µM (inactive). Consider `O=C1Cc2ccccc2CCc2ccsc21`, for which the GI50 in the experiment with DLD-1 is > 100 µM (inactive); with KM-20L2, > 100 µM (inactive); in the experiment with M19-MEL it was > 100 µM (inactive); with SNB-78, > 100 µM (inactive); in the experiment with HOP-18, 70.8 µM (inactive); in the experiment on LXFL 529 it was > 100 µM (inactive). Take `c1ccc(CCN2CCCCCC2)nc1`: in the experiment with BT-549, the GI50 was > 100 µM (inactive). On the same count and under the same terms, the result for `COC(=O)[C@H]1[C@@H](C(C)C)O[C@@H](C(C)C)O[C@H]1C(F)(F)F` reads > 100 µM (inactive); that for `CN(C)CCNc1nc2ccccc2c2c1CCCC2`, 33.1 µM (inactive); that for `C=C(C)C1=CCC[C@]2(C1)N=C(OC)[C@@H](C(C)C)N=C2OC`, > 100 µM (inactive). On to `Cc1cc(NS(=O)(=O)c2ccc(NC(=O)c3cccc4c(NNc5ccc(S(=O)(=O)N=C(N)N)cc5)c5ccccc5nc34)cc2)no1`, for which, in the experiment on BT-549, the GI50 was 57.8 µM (inactive). As to `Cc1cccnc1N/C=C1\C(=O)NC(=O)N(C)C1=O`, in the experiment on BT-549, the GI50 was > 100 µM (inactive).

Take `CC(=O)OC1CCC2(C)C(CCC3C2CC(=O)C2(C)C3CC(N3CC3)C2C(C)=O)C1` (stereo unspecified): the GI50 in the experiment with BT-549 was 17.4 µM (inactive). As to `Cc1ccc([N+]2=NC(c3ccc([N+](=O)[O-])cc3)=NN(c3ccccc3)C2)cc1`, the GI50 in the experiment with DLD-1 is 25.7 µM (inactive); in the experiment with KM-20L2 it was > 100 µM (inactive); in the experiment with M19-MEL, > 100 µM (inactive); in the experiment with SNB-78 it was 32.5 µM (inactive); in the experiment with LXFL 529 it was 42.1 µM (inactive); with DMS-114 it was 40.1 µM (inactive). With `O=C(/C=C/c1ccc(O)c(O)c1)c1ccc(O)cc1O` [BUTEIN], the GI50 is 13.9 µM (inactive) in the experiment with DLD-1; 9.27 µM (inactive) with BT-549; 17.1 µM (inactive) in the experiment with KM-20L2; 14 µM (inactive) in the experiment on M19-MEL; 20.8 µM (inactive) in the experiment with SNB-78; 2.47 µM (inactive) in the experiment with DMS-114. Take `Cc1cc(C)nc(NS(=O)(=O)c2ccc(NC(=O)c3cccc4c(N)c5ccccc5nc34)cc2)n1`: the GI50 with DLD-1 was > 100 µM (inactive); with KM-20L2, 88.7 µM (inactive); in the experiment on M19-MEL, > 100 µM (inactive); in the experiment on SNB-78, > 100 µM (inactive); in the experiment on LXFL 529 it was > 100 µM (inactive); in the experiment with DMS-114 it was > 100 µM (inactive). As to `O=C(NN1C(=O)c2ccccc2C1=O)c1ccccc1Nc1ccccc1C(=O)NN1C(=O)c2ccccc2C1=O`, in the experiment on BT-549, the GI50 is > 100 µM (inactive). The same measure, in the same setting: the result for `CN(C)C(=S)Oc1ccc2ccc(=O)oc2c1` reads > 100 µM (inactive); that for `CC1(C)CCC2=C(O1)/C(=N\Nc1ccc(F)cc1)c1ccccc1C2=O`, 41.9 µM (inactive); that for `CC(C)(C)OC(=O)CC(NC(=O)OC(C)(C)C)C(=O)NC(Cc1ccccc1)C(N)=O` (stereo unspecified) (Boc-Asp(OtBu)-Phe-NH2; configuration not given here), > 100 µM (inactive).

Take `C=CC(OC(C)=O)c1ccc(OC(=O)C(C)C)c(OC)c1` (stereo unspecified): in the experiment with BT-549, the GI50 is 6.79 µM (inactive). Turning to `Cn1cccc(C(=O)c2ccccc2)c1=O`, the GI50 with DLD-1, in the experiment on KM-20L2, in the experiment with M19-MEL, in the experiment with SNB-78, in the experiment with LXFL 529 and in the experiment on DMS-114 was > 100 µM (inactive) throughout. As to `CCOC(=O)/C(C(=O)Nc1cccc(Cl)c1)=C(/N)N1CCOCC1`, the GI50 in the experiment on BT-549 was > 100 µM (inactive). On the same count and under the same terms, under `CC(=O)Oc1ccc2cc(Oc3ccc(Cl)cc3)c(=O)oc2c1` stands 25.9 µM (inactive); under `Cc1ccc(C2SC(=N)Nc3c2c(C)nn3C(=O)c2ccccc2O)cc1` (stereo unspecified), > 10 µM (inactive); under `COc1cc2cc(C(=O)N3CC(COS(C)(=O)=O)c4c3cc([N+](=O)[O-])c3ccccc43)[nH]c2c(OC)c1OC` (stereo unspecified), > 31.6 µM (inactive). For `O=C1C=C(NCC(c2ccccc2)c2ccccc2)C(=O)c2ncccc21`, the GI50 in the experiment on BT-549 is 1.06 µM (active). The same measure, in the same setting: the result for `O=S(=O)(O)c1cccc2cccc(/N=N/c3c(O)ccc4ccccc34)c12` reads > 100 µM (inactive); that for `C=C(C)CNC(=S)N(N)c1ccc2ccccc2c1`, > 100 µM (inactive). As to `C(=C\c1cccs1)/c1cccc(/C=C/c2cccs2)n1`, the GI50 in the experiment with BT-549 is 22 µM (inactive).

Regarding `CC(=O)Nc1ccc(NNc2cc(=O)n(C)c(=O)[nH]2)cc1`, in the experiment with BT-549, the GI50 was 13.1 µM (inactive).

Regarding `CC(=O)OCc1cncn1S(=O)(=O)c1ccc(C)cc1`, the GI50 with BT-549 is > 83.4 µM (inactive).
